Source: the NIST ThermoML archive (doi:10.1021/je020178w)

Legend:
[1] = xn = mol fraction of the nth substance listed; details: 308.15 K, 101.3 kPa, Liquid; for viscosity: Capillary tube (Ostwald / Ubbelohde) method
[2] = 308.15 K, 101.3 kPa, Liquid; for viscosity: Capillary tube (Ostwald / Ubbelohde) method

CNC(C)=O [N-methylacetamide] + OCCOCCOCCO
[1]
Details | mass density [kg/m3] | viscosity [mPa·s]
x1 = 0.1142 | 1103.7 | 21.93
x1 = 0.2059 | 1095.7 | 20.39
x1 = 0.3069 | 1085.6 | 18.59
x1 = 0.4265 | 1071.8 | 16.35
x1 = 0.5415 | 1056.3 | 14.01
x1 = 0.6392 | 1041 | 11.91
x1 = 0.7266 | 1025.3 | 9.98
x1 = 0.8278 | 1004.5 | 7.74
x1 = 0.9307 | 979.5 | 5.3
x1 = 1 | 958.9 | 3.67

OCCOCCO [diethylene glycol]
[2]
Details | mass density [kg/m3] | viscosity [mPa·s]
– | 1105.6 | 17.59

OCCO [1,2-ethanediol]
Details | viscosity [mPa·s]
[2] | 10.59

OCCOCCOCCO [triethylene glycol]
[2]
Details | mass density [kg/m3] | viscosity [mPa·s]
– | 1112.1 | 23.84

CNC(C)=O [N-methylacetamide]
[2]
Details | mass density [kg/m3] | viscosity [mPa·s]
– | 958.9 | 3.67

OCCOCCO [diethylene glycol] + CNC(C)=O
[1], x2 = 0
Details | mass density [kg/m3] | viscosity [mPa·s]
– | 1105.6 | 17.59

CNC(C)=O [N-methylacetamide] + OCCO
[1]
Details | mass density [kg/m3]
x1 = 0.0847 | 1089.5
x1 = 0.212 | 1068.3
x1 = 0.3298 | 1049.4
x1 = 0.4247 | 1034.9
x1 = 0.5255 | 1020.5
x1 = 0.6275 | 1006.3
x1 = 0.7471 | 990.5
x1 = 0.8412 | 978.6
x1 = 0.9347 | 967.3
x1 = 1 | 958.9

CNC(C)=O [N-methylacetamide] + OCCOCCO
[1]
Details | mass density [kg/m3] | viscosity [mPa·s]
x1 = 0.1121 | 1094.4 | 16.13
x1 = 0.2394 | 1079.9 | 14.47
x1 = 0.3419 | 1067.4 | 13.11
x1 = 0.4564 | 1052.2 | 11.57
x1 = 0.5574 | 1037.8 | 10.17
x1 = 0.6538 | 1023.2 | 8.8
x1 = 0.7649 | 1005.3 | 7.2
x1 = 0.8343 | 993 | 6.16
x1 = 0.9252 | 975.2 | 4.8
x1 = 1 | 958.9 | 3.67

OCCOCCOCCO [triethylene glycol] + CNC(C)=O
[1], x2 = 0
Details | mass density [kg/m3] | viscosity [mPa·s]
– | 1112.1 | 23.84
